From PubChem BioAssay (NCI)
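A five-concentration, 48-hour dose response in 96-well plates underlies each endpoint, interpolated linearly between surrounding concentrations. At the GI50, growth is halved. The concentration for full growth arrest is given as TGI.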

Columns and labels:
Assay in all cases: inhibition of tumour cell growth, NCI panel, 48 h
[1] = system: DU-145 prostate
[2] = system: HCC-2998 colon
[3] = system: SF-295 CNS
[4] = system: TK-10 renal
[5] = system: PC-3 prostate
[6] = system: HL-60(TB) leukemia
[7] = system: HT29 colon
[8] = system: SK-MEL-28 melanoma
[9] = system: UACC-62 melanoma
[10] = system: U251 CNS

Structure (SMILES)	TGI [1]	TGI [2]	TGI [3]	TGI [4]	TGI [5]	TGI [6]	TGI [7]	TGI [8]	TGI [9]	TGI [10]	GI50 [1]	GI50 [2]	GI50 [4]	GI50 [5]	GI50 [6]	GI50 [7]	GI50 [8]	GI50 [10]	GI50 [9]
COc1ccc(C2=[S+]C(c3ccccc3)(c3ccccc3)c3ccccc32)cc1	65.7 µM	> 100 µM	88.8 µM	73.3 µM	> 100 µM	51.1 µM	30.3 µM	58.5 µM	53.6 µM	45.3 µM	–	–	–	–	–	–	–	–	–
Nc1ccccc1C#CC(=O)c1cccc(C(F)(F)F)c1	37.1 µM	–	34.1 µM	39.1 µM	12 µM	41.1 µM	19.2 µM	–	3.85 µM	3.95 µM	–	–	–	–	–	–	–	–	–
CCOC(=O)/C=C/c1c(C)[nH]c(=O)[nH]c1=O	–	> 250 µM	> 250 µM	–	–	> 250 µM	> 250 µM	> 250 µM	> 250 µM	> 250 µM	–	–	–	–	–	–	–	–	–
CN=C(Nc1ccc(OC)c2ccccc12)SC	> 10 µM	> 10 µM	> 10 µM	> 10 µM	> 10 µM	> 10 µM	> 10 µM	> 10 µM	> 10 µM	> 10 µM	–	–	–	–	–	–	–	–	–
Cc1ccc(O)c(C2=CC3=NNC(=O)C3C(c3cccc(Cl)c3)C2)c1 (stereo unspecified)	> 100 µM	44.5 µM	> 100 µM	57.5 µM	> 100 µM	> 100 µM	63.9 µM	> 100 µM	86.6 µM	> 100 µM	–	–	–	–	–	–	–	–	–
O=C(/C=C1\Sc2ccccc2N=C1CC(=O)c1ccccc1)c1ccccc1	89.1 µM	26.2 µM	24.7 µM	45.2 µM	> 100 µM	22.3 µM	23.6 µM	57.2 µM	–	18.2 µM	–	–	–	–	–	–	–	–	–
C/C(=N\NC(=S)N1CCC(N2CCCCC2)CC1)c1ccccn1	11.2 µM	> 24.3 µM	7.12 µM	6.29 µM	10.3 µM	> 21 µM	9.88 µM	13.7 µM	10.7 µM	9.86 µM	–	–	–	–	–	–	–	–	–
COc1cccc2c1C(=O)c1c(O)c3c(c(O)c1C2=O)C[C@@](O)(C(=O)COC(=O)c1ccccc1)C[C@@H]3OC1CC(N)C(O)C(C)O1 (stereo partly specified)	1.1 µM	2.32 µM	–	0.879 µM	0.744 µM	0.69 µM	0.273 µM	1.95 µM	–	0.273 µM	0.252 µM	0.421 µM	0.151 µM	0.194 µM	0.0679 µM	0.102 µM	0.534 µM	0.113 µM	–
Cc1ccc(Cl)cc1N=NC(=O)NNc1cc(Cl)ccc1C	58.3 µM	> 100 µM	> 100 µM	–	46.3 µM	> 100 µM	80.6 µM	38.9 µM	24.2 µM	59.6 µM	–	–	–	–	–	–	–	–	–
N#[N+]c1c([O-])c2ccccc2c2ccccc12	> 100 µM	> 100 µM	> 100 µM	> 100 µM	> 100 µM	> 100 µM	> 100 µM	> 100 µM	69.7 µM	> 100 µM	–	–	–	–	–	–	–	–	–
c1ccc2c(c1)c1ccccc1n2Cn1c2ccccc2c2ccccc21	> 100 µM	–	> 100 µM	> 100 µM	> 100 µM	> 100 µM	> 100 µM	> 100 µM	> 100 µM	> 100 µM	–	–	–	–	–	–	–	–	–
Cc1cn(-c2cccc(NC(=O)c3ccc(C)c(Nc4nccc(-c5cccnc5)n4)c3)c2)cn1	17.9 µM	8.02 µM	–	3.6 µM	13.5 µM	19.8 µM	3.74 µM	3.18 µM	3.35 µM	3.39 µM	3.73 µM	3.05 µM	2.04 µM	2.33 µM	4.61 µM	1.98 µM	1.8 µM	1.69 µM	1.65 µM
